Data from US20200009088A1, “COMPOSITIONS AND METHODS FOR TREATING ANDROGEN-INDEPENDENT CANCER” (The Regents of the University of California, priority 2017, published 2020).

Experiments:
AR = assay: Western blot of AR expression in CWR22Rv1 cell lysates; format: cell-based; conditions: CWR22Rv1 cells, FIG. 2A
Method: (§1) “AR-Variants” represents a combination of all forms of AR.
(§2) The effects of the synthetic small molecule modulators on AR and AR variant expression were determined. CWR22Ry1 prostate cancer cells were treated with different compounds. Protein lysates were analyzed for AR and AR variant expression.

AR-V7 [1] = target: T1, AR-V7 (Homo sapiens, UniProt P10275); assay: AR transactivation luciferase assay in HEK 293 cells, AR-V7; format: cell-based; conditions: luciferase reporter, FIG. 5B
T1 sequence (P10275 1-644 isoform P10275-3): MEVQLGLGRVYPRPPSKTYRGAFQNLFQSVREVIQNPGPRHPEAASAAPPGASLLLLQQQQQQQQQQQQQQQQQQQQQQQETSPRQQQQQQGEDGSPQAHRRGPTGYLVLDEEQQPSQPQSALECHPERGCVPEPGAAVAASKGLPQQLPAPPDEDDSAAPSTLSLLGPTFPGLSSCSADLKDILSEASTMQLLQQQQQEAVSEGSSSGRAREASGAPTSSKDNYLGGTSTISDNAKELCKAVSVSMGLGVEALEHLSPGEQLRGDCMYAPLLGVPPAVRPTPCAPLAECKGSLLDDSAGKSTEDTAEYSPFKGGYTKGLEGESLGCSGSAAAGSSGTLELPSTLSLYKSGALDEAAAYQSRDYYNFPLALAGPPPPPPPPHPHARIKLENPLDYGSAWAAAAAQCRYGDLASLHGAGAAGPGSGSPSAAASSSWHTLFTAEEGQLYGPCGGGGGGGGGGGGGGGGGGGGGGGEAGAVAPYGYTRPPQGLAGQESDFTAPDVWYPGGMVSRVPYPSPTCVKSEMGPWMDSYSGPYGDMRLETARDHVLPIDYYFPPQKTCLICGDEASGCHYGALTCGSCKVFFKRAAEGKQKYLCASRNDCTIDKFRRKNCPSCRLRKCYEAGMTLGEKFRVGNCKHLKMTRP
Method: (§3) HEK 293 cells were transiently transfected with expression vectors encoding the corresponding mutant AR and an androgen-responsive luciferase reporter gene construct. […] Luciferase activity was then determined.

T878A AR mutant = target: T2, T878A AR mutant (Homo sapiens, UniProt P10275, T878A); assay: AR transactivation luciferase assay in HEK 293 cells, T878A; format: cell-based; conditions: luciferase reporter, FIG. 5C
T2 construct: expressed in transfected cells; host or cells: HEK 293
Method: as §3

K581R AR mutant = target: T3, K581R AR mutant (Homo sapiens, UniProt P10275, K581R); assay: AR transactivation luciferase assay in HEK 293 cells, K581R; format: cell-based; conditions: luciferase reporter, FIG. 5D
T3 construct: expressed in transfected cells; host or cells: HEK 293
Method: as §3

V716M AR mutant = target: T4, V716M AR mutant (Homo sapiens, UniProt P10275, V716M); assay: AR transactivation luciferase assay in HEK 293 cells, V716M; format: cell-based; conditions: luciferase reporter, FIG. 5E
T4 construct: expressed in transfected cells; host or cells: HEK 293
Method: as §3

CWR22Rv1 cells = assay: Cell growth assay (cell numbers), CWR22Rv1; format: cell-based; conditions: for synergy with abiraterone in inhibiting cell growth: CWR22Rv1, analog 0.25 μM + abiraterone 5 μM; for cell growth, combination with abiraterone: CWR22Rv1, analog 0.25 μM + abiraterone 5 μM, 0, 3, 5 days; for cell growth, combination with abiraterone / cell growth, combination with enzalutamide: FIGS. 9, 11; for cell growth, combination with bicalutamide: CWR22Rv1, analog 0.25 μM + bicalutamide 20 μM, 0, 3, 5 days; for synergy with enzalutamide in inhibiting cell growth: CWR22Rv1, analog 0.25 μM + enzalutamide 20 μM; for cell growth, combination with enzalutamide: CWR22Rv1, analog 0.25 μM + enzalutamide 20 μM, 0, 3, 5 days; for cell growth, niclosamide analog alone: CWR22Rv1, analog 0.25 μM, 0, 3, 5 days, FIGS. 9, 11, 12
Method: DMSO treatment was used as a negative control. Total cell numbers were counted at 0, 3, and 5 days.
DMSO treatment was used as a negative control. Total cell numbers were counted at 0, 3, and 5 days. […]
The cell growth was determined at 3,5 days. […] The cell growth was determined at 3,5 days.

C4-2B MDVR cells = assay: Cell growth assay (cell numbers), C4-2B MDVR; format: cell-based; conditions: for cell proliferation, combination with enzalutamide (MDV) / cell growth: C4-2B MDVR, 48 hours; for cell proliferation, combination with enzalutamide (MDV): 0.5 μM + enzalutamide, FIG. 7B; for cell growth: increasing doses of niclosamide/analogs, FIG. 6
C4-2B AbiR cells = assay: Cell growth assay (cell numbers), C4-2B AbiR; format: cell-based; conditions: 0.5 μM + enzalutamide, 48 hours, FIG. 7C
C4-2-V7 cells = assay: Cell growth assay (cell numbers), C4-2-V7; format: cell-based; conditions: C4-2-V7, 0.5 μM + enzalutamide, 48 hours, FIG. 7D
AR-FL = target: T5, AR-FL (Homo sapiens, UniProt P10275, T878A); assay: PSA-luc assay in C4-2B cells (pcDNA), AR-FL; format: cell-based; conditions: FBS, 1 μM overnight, FIG. 14A
T5 construct: endogenous in cells; host or cells: C4-2B cells transfected with pcDNA and the PSA-E/P-luciferase reporter
Excerpt: (§4) C4-2B cells were cotransfected with pcDNA, with or without AR-V1, AR-V3, AR-V7, AR-V9 or AR-V12, and with PSA-E/P-luciferase plasmids in FBS condition.

AR-V1 = target: T6, AR-V1 (Homo sapiens, UniProt P10275); assay: PSA-luc assay in C4-2B cells, AR-V1; format: cell-based; conditions: FBS, 1 μM overnight, FIG. 14B
T6 construct: expressed in transfected cells; host or cells: C4-2B
Excerpt: as §4

AR-V3 = assay: PSA-luc assay in C4-2B cells, AR-V3; format: cell-based; conditions: FBS, 1 μM overnight, FIG. 14C
Excerpt: as §4

AR-V7 [2] = target: T1, AR-V7; assay: PSA-luc assay in C4-2B cells, AR-V7; format: cell-based; conditions: FBS, 1 μM overnight, FIG. 14D
Excerpt: as §4

AR-V9 = target: T7, AR-V9 (Homo sapiens, UniProt P10275, DEL470-473/INS56QQQQQ/L57Q); assay: PSA-luc assay in C4-2B cells, AR-V9; format: cell-based; conditions: FBS, 1 μM overnight, FIG. 14E
T7 construct: expressed in transfected cells; host or cells: C4-2B
Excerpt: as §4

in vivo = conditions: male, Sprague-Dawley, rat, in vivo, po, 200 mg/kg
Method: Blood samples were obtained at the time points indicated in FIG. 18 (0 minutes, 15 minutes, 30 minutes, 1 hour, 1.5 hours, 2 hours, 4 hours, 6 hours, 8 hours, and 24 hours) and the plasma was isolated for LC-MS analysis.

MCF-7 cells = assay: Breast cancer cell growth, MCF-7; format: cell-based; conditions: three days, FIG. 20B
AR-V7 [3] = target: T1, AR-V7; assay: PSA-luc reporter in LNCaP cells co-transfected with AR-V7; conditions: LNCaP cells co-transfected with AR-V7, FIG. 4
Method: The luciferase activity was then determined. * denotes p<0.05.
In addition, the effects on AR transcriptional activity were determined using PSA-luc as a reporter. LNCaP cells were cotransfected with PSA-luc together with or without AR-V7, and treated with the compounds.

AR-V7 [4] = target: T1, AR-V7; assay: Western blot of AR-V7 expression in CWR22Rv1 cell lysates; format: cell-based; design: endogenous in cells; host or cells: CWR22Rv1 prostate cancer cells (also grown as xenograft tumours); conditions: CWR22Rv1 cells, FIG. 2A
Method: as §1, §2

SMILES | AR expression (AR) | AR-V7 transactivation (AR-V7 [1]) | T878A mutant AR transactivation (T878A AR mutant) | K581R mutant AR transactivation (K581R AR mutant) | V716M mutant AR transactivation (V716M AR mutant) | synergy with abiraterone in inhibiting cell growth (CWR22Rv1 cells) | cell growth, combination with abiraterone (CWR22Rv1 cells) | cell growth, combination with bicalutamide (CWR22Rv1 cells; FIG. 12) | synergy with enzalutamide in inhibiting cell growth (CWR22Rv1 cells) | cell growth, combination with enzalutamide (CWR22Rv1 cells) | cell growth, niclosamide analog alone (CWR22Rv1 cells) | cell proliferation, combination with enzalutamide (MDV) (C4-2B MDVR cells) | cell growth (C4-2B MDVR cells) | cell proliferation, combination with enzalutamide (MDV) (C4-2B AbiR cells) | cell proliferation, combination with enzalutamide (MDV) (C4-2-V7 cells) | AR-FL-mediated transcriptional activity (PSA-luc) (AR-FL) | AR-V1-mediated PSA-luc activity (AR-V1) | AR-V3-mediated PSA-luc activity (AR-V3) | AR-V7-mediated PSA-luc activity (AR-V7 [2]) | AR-V9-mediated PSA-luc activity (AR-V9) | also measured
C=CC(=O)Oc1ccc(Cl)cc1C(=O)Nc1ccc([N+](=O)[O-])cc1Cl [Compound 31] | inhibited | significantly blocked | significantly blocked | significantly blocked | significantly blocked | able to synergize | significantly inhibited | able to significantly inhibit | able to synergize | significantly inhibited | None of Compounds 1, 7, 30, 31, or 34 alone were able to inhibit | further inhibited | able to inhibit cell growth in a dose-dependent manner | further inhibited | further inhibited | inhibited | inhibited | inhibited | inhibited | inhibited | synergy with bicalutamide in inhibiting cell growth (CWR22Rv1 cells; CWR22Rv1, analog 0.25 μM + bicalutamide 20 μM, FIG. 12): able to synergize; synergy with abiraterone in inhibiting cell growth (C4-2B MDVR cells; C4-2BMDVR, analog 0.25 μM + abiraterone 5 μM, FIG. 10): able to synergize; synergy with enzalutamide in inhibiting cell growth (C4-2B MDVR cells; C4-2BMDVR, analog 0.25 μM + enzalutamide 20 μM, FIG. 10): able to synergize; AUC(0-inf) (in vivo): 6.48 µM·h; AUC(0-t) (in vivo): 6.37 µM·h; AUC_% Extrap_obs (in vivo): 2.3 +/− 1.85%; Cmax (in vivo): 2.69 µM; HL_Lambda_z (in vivo): 276.51 ± 92.17 min; Tmax (in vivo): 25 min; Cmax (in vivo; Cmax): 2.69 µM; breast cancer cell growth (MCF-7 cells): inhibited; AR-V7 mediated PSA-luc activity (AR-V7 [3]): inhibited; AR-V7 (AR variant) expression (AR-V7 [4]): inhibited
O=C(Nc1ccc(C(F)(F)F)cc1Cl)c1cc(Cl)ccc1O [Compound 7] | inhibited | significantly blocked | significantly blocked | significantly blocked | significantly blocked | able to synergize | able to significantly inhibit | able to significantly inhibit | able to synergize | able to significantly inhibit | None of Compounds 1, 7, 30, 31, or 34 alone were able to inhibit | further inhibited | able to inhibit cell growth in a dose-dependent manner | further inhibited | further inhibited | inhibited | inhibited | inhibited | inhibited | inhibited | enhancement of abiraterone treatment (cell growth) (CWR22Rv1 cells; CWR22Rv1, 0.5 μM Compound 7 + 5 μM abiraterone, 3,5 days, FIG. 17B): significantly enhanced; enhancement of apalutamide treatment (cell growth) (CWR22Rv1 cells; CWR22Rv1, 0.5 μM Compound 7 + 20 μM apalutamide, 3,5 days, FIG. 17A): significantly enhanced; AUC(0-inf) (in vivo): 4.28 µM·h; AUC_% Extrap_obs (in vivo): 15.35 +/− 3.08%; HL_Lambda_z (in vivo): 580.54 ± 86.4 min; breast cancer cell growth (MCF-7 cells): inhibited; AR-V7 mediated PSA-luc activity (AR-V7 [3]): inhibited; AR-V7 (AR variant) expression (AR-V7 [4]): inhibited
